Data taken from patent US20050119281A1, “Powder composition comprising zaleplon of defined particle size distribution and pharmaceutical products made therefrom” (Biogal Gyogyszergyar Rt, priority 2002, published 2005).

Experiment: Particle size distribution of zaleplon particles by laser diffraction (Malvern Mastersizer)
Type: physicochemical
Details: suspended in hexane with 1% Tween 80, sonicated 120 seconds
Method: In accordance with the invention, the size distribution of zaleplon particles is determined by laser diffraction. Our method of determining the size of zaleplon particles used a Malvern™ Mastersizer laser diffraction instrument. Samples of the zaleplon were suspended in hexane containing a surfactant, 1% Tween® 80. The suspensions were mixed and then sonicated for 120 seconds to thoroughly disperse the zaleplon particles. The dispersion was then circulated in the flow cell of the Malvern Mastersizer for two minutes before particle size measurements were taken.

Structure (SMILES) | diameter that 10% of the particles are equal to or less than | diameter that 90% of the particles are equal to or less than | median particle size
CCN(C(C)=O)c1cccc(-c2ccnc3c(C#N)cnn23)c1 [milled zaleplon, N-[3-(3-cyanopyrazolo[1,5-a]pyrimidin-7-yl)phenyl]-N-ethylacetamide] | 8.3 μm | 84.6 μm | 37.0 μm
CCN(C(C)=O)c1cccc(-c2ccnc3c(C#N)cnn23)c1 [micronized zaleplon, N-[3-(3-cyanopyrazolo[1,5-a]pyrimidin-7-yl)phenyl]-N-ethylacetamide] |  | 15.1 μm | 6.3 μm
CCN(C(C)=O)c1cccc(-c2ccnc3c(C#N)cnn23)c1 [Zaleplon, N-[3-(3-cyanopyrazolo[1,5-a]pyrimidin-7-yl)phenyl]-N-ethylacetamide] | 14 μm | 134 μm | 55 μm
